Among the data in patent US8324250B2 (Hoffmann-La Roche Inc., priority 2009, dated 2012) are Ki values, retold here.

The target of the assay is T1, recombinant human NK3 receptor (Homo sapiens, UniProt P29371).
T1 construct: expressed in transfected cells; host or cells: HEK293 cells (transient expression), membranes
T1 sequence (P29371 1-465): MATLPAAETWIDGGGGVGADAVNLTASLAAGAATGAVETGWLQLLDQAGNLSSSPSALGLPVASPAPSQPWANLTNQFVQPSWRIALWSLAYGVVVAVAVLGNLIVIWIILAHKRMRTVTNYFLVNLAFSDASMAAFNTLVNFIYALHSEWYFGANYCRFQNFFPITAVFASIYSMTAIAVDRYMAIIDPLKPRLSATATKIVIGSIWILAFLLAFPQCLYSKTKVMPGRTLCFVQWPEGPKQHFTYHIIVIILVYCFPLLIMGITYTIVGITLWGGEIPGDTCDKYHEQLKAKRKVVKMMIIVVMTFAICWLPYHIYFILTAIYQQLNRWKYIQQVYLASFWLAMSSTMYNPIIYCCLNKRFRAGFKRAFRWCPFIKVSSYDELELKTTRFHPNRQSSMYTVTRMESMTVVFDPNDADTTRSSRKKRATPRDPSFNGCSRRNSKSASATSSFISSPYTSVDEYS
Put plainly: [3H]SR142801 competition binding assay. As to conditions: membranes from HEK293 cells transiently expressing recombinant human NK3 receptor; [3H]SR142801 radioligand; 75 min at RT; Ki by Cheng-Prussoff; read-out: Data Ki (hNK-3 receptor affinity). The method, then: [^3H]SR142801 Competition Binding Assay
hNK3 receptor binding experiment were performed using [^3H]SR142801 (Catalog No. TRK1035, specific activity: 74.0 Ci/mmol, Amersham, GE Healthcare UK limited, Buckinghamshire, UK) and membrane isolated from HEK293 cells transiently expressing recombinant human NK3 receptor. After thawing, the membrane homogenates were centrifuged at 48,000×g for 10 min at 4° C., the pellets were resuspended in the 50 mM Tris-HCl, 4 mM MnCl2, 1 μM phosphoramidon, 0.1% BSA binding buffer at pH 7.4 to a final assay concentration of 5 μg protein/well. […] At the end of the incubation, membranes were filtered onto unitfilter (96-well white microplate with bonded GF/C filter preincubated 1 h in 0.3% PEI+0.3% BSA, Packard BioScience, Meriden, Conn.) with a Filtermate 196 harvester (Packard BioScience) and washed 4 times with ice-cold 50 mM Tris-HCl, pH 7.4 buffer. Nonspecific binding was measured in the presence of 10 μM SB222200 for both radioligands. The radioactivity on the filter was counted (5 min) on a Packard Top-count microplate scintillation counter with quenching correction after addition of 45 μl of microscint 40 (Can berra Packard S. A., Zurich, Switzerland) and shaking for 1 h. Inhibition curves were fitted according to the Hill equation: y=100/(1+(x/IC50)^nH), where nH=slope factor using Excel-fit 4 software (Microsoft). IC50 values were derived from the inhibition curve and the affinity constant (Ki) values were calculated using the Cheng-Prussoff equation Ki═IC50/(1+[L]/KD) where [L] is the concentration of radioligand and KD is its dissociation constant at the receptor, derived from the saturation isotherm. All experiments were performed in duplicate and the mean±standard error (SEM) of the individual Ki values was calculated.

Usually Ki stands for the equilibrium dissociation constant of an inhibitor or competing ligand from its target. Regarding `O=C(c1ccc(-c2ccc(F)cc2)cc1)N1CCC(C(=O)NNc2ccc(F)c(F)c2)(c2ccc(F)cc2)CC1` [Example 191, 1-(4′-Fluoro-biphenyl-4-carbonyl)-4-(4-fluoro-phenyl)-piperidine-4-carboxylic acid N′-(3,4-difluoro-phenyl)-hydrazide], the Ki stood at 17 nM. With `C[C@H](NC(=O)C1(c2ccccc2)CCN(C(=O)c2ccc(N3CCS(=O)(=O)CC3)cc2)CC1)c1ccccc1` [Example 9, 1-[4-(1,1-Dioxo-lλ6-thiomorpholin-4-yl)-benzoyl]-4-phenyl-piperidine-4-carboxylic acid ((S)-1-phenyl-ethyl)-amide] the figure was 21.8 nM; with `C[C@H](NC(=O)C1(c2ccc(F)cc2)CCN(C(=O)c2ccc(N3CCS(=O)(=O)CC3)cc2)CC1)c1ccc(F)cc1` [Example 1, 1-[4-(1,1-Dioxo-1λ^6-thiomorpholin-4-yl)-benzoyl]-4-(4-fluoro-phenyl)-piperidine-4-carboxylic acid [(S)-1-(4-fluoro-phenyl)-ethyl]-amide], 29.3 nM; with `O=C(c1ccc(-c2ccc(F)cc2)cc1)N1CCC(C(=O)N[C@@H](CO)c2ccc(F)cc2)(c2ccc(F)cc2)CC1` [Example 151, 1-(4′-Fluoro-biphenyl-4-carbonyl)-4-(4-fluoro-phenyl)-piperidine-4-carboxylic acid [(R)-1-(4-fluoro-phenyl)-2-hydroxy-ethyl]-amide], 11.5 nM. In the case of `Cc1ccc(N2CCN(C(=O)N3CCC(C(=O)N[C@@H](C)c4ccccc4)(c4ccccc4)CC3)CC2)cc1` [Example 208, 4-Phenyl-1-(4-p-tolyl-piperazine-1-carbonyl)-piperidine-4-carboxylic acid ((S)-1-phenyl-ethyl)-amide], the inhibition constant Ki was determined as 70.9 nM. Next, `C[C@H](NC(=O)C1(c2ccccc2)CCN(C(=O)N2CCC(N3CCS(=O)(=O)CC3)CC2)CC1)c1ccc(F)cc1` [Example 223, 1-[4-(1,1-Dioxo-1λ6-thiomorpholin-4-yl)-piperidine-1-carbonyl]-4-phenyl-piperidine-4-carboxylic acid [(S)-1-(4-fluoro-phenyl)-ethyl]-amide]: 6 nM. Next, `C[C@H](NC(=O)C1(c2ccccc2)CCN(C(=O)c2ccc(N3CCCCC3)cc2)CC1)c1ccccc1` [Example 11, 4-Phenyl-1-(4-piperidin-1-yl-benzoyl)-piperidine-4-carboxylic acid ((S)-1-phenyl-ethyl)-amide]: 44 nM; `C[C@H](NC(=O)C1(c2ccccc2)CCN(C(=O)N2CCN(c3cccnc3)CC2)CC1)c1ccccc1` [Example 224, 4-Phenyl-1-(4-pyridin-3-yl-piperazine-1-carbonyl)-piperidine-4-carboxylic acid ((S)-1-phenyl-ethyl)-amide]: 63.8 nM. Next, `O=C(c1ccc(-c2ccc(F)cc2)cc1)N1CCC(C(=O)NC(c2ccccc2)C(F)(F)F)(c2ccc(F)cc2)CC1` (centres unmarked) [Example 145, 1-(4′-Fluoro-biphenyl-4-carbonyl)-4-(4-fluoro-phenyl)-piperidine-4-carboxylic acid (2,2,2-trifluoro-1-phenyl-ethyl)-amide]: 36.4 nM; `CC(C)c1nc(-c2ccc(C(=O)N3CCC(C(=O)N[C@@H](C)c4ccccc4)(c4ccccc4)CC3)cc2)no1` [Example 66, 1-[4-(5-Isopropyl-[1,2,4]oxa-diazol-3-yl)-benzoyl]-4-phenyl-piperidine-4-carboxylic acid ((S)-1-phenyl-ethyl)-amide]: 59 nM. As to `CCN(NC(=O)C1(c2ccc(F)cc2)CCN(C(=O)c2ccc(-c3nc(C)no3)cc2)CC1)c1ccc(F)cc1` [Example 160, 4-(4-Fluoro-phenyl)-1-[4-(3-methyl-[1,2,4]oxodiazol-5-yl)-benzoyl]-piperidine-4-carboxylic acid N′-ethyl-#N!′-(4-fluoro-phenyl)-hydrazide], the Ki turned out to be 92 nM. For `Cc1ccccc1N1CCN(C(=O)N2CCC(C(=O)N[C@@H](C)c3ccccc3)(c3ccccc3)CC2)CC1` [Example 229, 4-Phenyl-1-(4-o-tolyl-piperazine-1-carbonyl)-piperidine-4-carboxylic acid ((S)-1-phenyl-ethyl)-amide], the Ki worked out at 34.9 nM.

Turning to `Cc1cccc(N2CCN(C(=O)N3CCC(C(=O)N[C@@H](C)c4ccccc4)(c4ccccc4)CC3)CC2)c1` [Example 226, 4-Phenyl-1-(4-m-tolyl-piperazine-1-carbonyl)-piperidine-4-carboxylic acid ((S)-1-phenyl-ethyl)-amide], the Ki came to 64.8 nM. With `Cc1nc(-c2ccc(C(=O)N3CCC(C(=O)N[C@@H](C)c4ccc(F)cc4)(c4ccccc4)CC3)cc2)no1` [Example 77, 1-[4-(5-Methyl-[1,2,4]oxa-diazol-3-yl)-benzoyl]-4-phenyl-piperidine-4-carboxylic acid [(S)-1-(4-fluoro-phenyl)-ethyl]-amide] the figure was 12.2 nM; with `N#Cc1ccc(N2CCC(C(=O)N3CCC(C(=O)N[C@H](c4cccc(F)c4)C4CC4)(c4ccc(F)cc4)CC3)CC2)nc1` [Example 195, 1-(5′-Cyano-3,4,5,6-tetrahydro-2H-[1,2′]bipyridinyl-4-carbonyl)-4-(4-fluoro-phenyl)-piperidine-4-carboxylic acid [(S)-cyclopropyl-(3-fluoro-phenyl)-methyl]-amide], 15 nM.

In the case of `C[C@H](NC(=O)C1(c2ccccc2)CCN(C(=O)c2ccc(-c3ccn(C)n3)cc2)CC1)c1ccccc1` [Example 69, l-[4-(1-Methyl-1 H-pyrazol-3-yl)-benzoyl]-4-phenyl-piperidine-4-carboxylic acid ((S)-1-phenyl-ethyl)-amide], the Ki was determined as 77.3 nM. For the molecule `C[C@H](NC(=O)C1(c2ccccc2)CCN(C(=O)c2ccc(-c3ccc(F)cc3)cc2)CC1)c1ccc(Cl)cc1` [Example 102, 1-(4′-Fluoro-biphenyl-4-carbonyl)-4-phenyl-piperidine-4-carboxylic acid [(S)-1-(4-chloro-phenyl)-ethyl]-amide], the Ki amounted to 17.2 nM. On to `O=C(c1ccc(-c2ccc(F)cc2)cc1)N1CCC(C(=O)N[C@H](c2cccc(F)c2)C2CC2)(c2ccc(F)cc2)CC1` [Example 193, 1-(4′-Fluoro-biphenyl-4-carbonyl)-4-(4-fluoro-phenyl)-piperidine-4-carboxylci acid [(S)-cyclopropyl-(3-fluoro-phenyl)-methyl]-amide], for which the Ki was found to be 7.4 nM.

On to `CC(=O)c1cccc(-c2ccc(C(=O)N3CCC(C(=O)N[C@@H](C)c4ccccc4)(c4ccccc4)CC3)cc2)c1` [Example 60, 1-(3′-Acetyl-biphenyl-4-carbonyl)-4-phenyl-piperidine-4-carboxylic acid ((S)-1-phenyl-ethyl)-amide], for which the Ki was found to be 31.5 nM.

Regarding `C[C@H](NC(=O)C1(c2ccccc2)CCN(C(=O)N2CCN(C3CCCC3)CC2)CC1)c1ccccc1` [Example 215, 1-(4-Cyclopentyl-piperazine-1-carbonyl)-4-phenyl-piperidine-4-carboxylic acid ((S)-1-phenyl-ethyl)-amide], the Ki came to 20.6 nM. Next, `CC(C)N(NC(=O)C1(c2ccc(F)cc2)CCN(C(=O)c2ccc(-c3ccc(F)cc3)cc2)CC1)c1ccc(F)cc1` [Example 185, 1-(4′-Fluoro-biphenyl-4-carbonyl)-4-(4-fluoro-phenyl)-piperidine-4-carboxylic acid N′-(4-fluoro-phenyl)-N′-ispropyl-hydrazide]: 63.6 nM; `C[C@H](NC(=O)C1(c2ccccc2)CCN(C(=O)c2ccc(-c3ccc(F)cc3)cc2)CC1)c1ccc(F)cc1` [Example 79, 1-(4′-Fluoro-biphenyl-4-carbonyl)-4-phenyl-piperidine-4-carboxylic acid [(S)-1-(4-fluoro-phenyl)-ethyl]-amide]: 9.5 nM. With `C[C@H](NC(=O)C1(c2ccc(F)cc2)CCN(C(=O)C2CCN(c3ccc(C#N)cn3)CC2)CC1)c1cccc(F)c1` [Example 155, 1-(5′-Cyano-3,4,5,6-tetrahydro-2H-[1,2′]bipyridinyl-4-carbonyl)-4-(4-fluoro-phenyl)-piperidine-4-carboxylic acid [(S)-1-(3-fluoro-phenyl)-ethyl]-amide] the figure was 75 nM.
